Experimental data reported in patent US9732075B2, “Benzimidazole-proline derivatives” (IDORSIA PHARMACEUTICALS LTD, priority 2012, dated 2017).

Columns and labels:
human orexin-2 receptor = human orexin-2 receptor (Homo sapiens (Human), UniProt O43614); test: In vitro assay: intracellular calcium measurements (FLIPR), antagonistic activity; type: cell-based; settings: CHO cells expressing human orexin-2 receptor, orexin-A agonist, geometric mean, read-out: IC50 Ox2
How it was run: (§1)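 Dye-loaded CHO cells expressing either human orexin receptor are exposed to test antagonist for 120 min, then stimulated with orexin-A at 3 nM.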

human orexin-1 receptor = human orexin-1 receptor (Homo sapiens (Human), UniProt O43613); test: as above; type: cell-based; settings: CHO cells expressing human orexin-1 receptor, orexin-A agonist, geometric mean, read-out: IC50 Ox1
How it was run: as §1

Sequence of human orexin-2 receptor (O43614 whole entry): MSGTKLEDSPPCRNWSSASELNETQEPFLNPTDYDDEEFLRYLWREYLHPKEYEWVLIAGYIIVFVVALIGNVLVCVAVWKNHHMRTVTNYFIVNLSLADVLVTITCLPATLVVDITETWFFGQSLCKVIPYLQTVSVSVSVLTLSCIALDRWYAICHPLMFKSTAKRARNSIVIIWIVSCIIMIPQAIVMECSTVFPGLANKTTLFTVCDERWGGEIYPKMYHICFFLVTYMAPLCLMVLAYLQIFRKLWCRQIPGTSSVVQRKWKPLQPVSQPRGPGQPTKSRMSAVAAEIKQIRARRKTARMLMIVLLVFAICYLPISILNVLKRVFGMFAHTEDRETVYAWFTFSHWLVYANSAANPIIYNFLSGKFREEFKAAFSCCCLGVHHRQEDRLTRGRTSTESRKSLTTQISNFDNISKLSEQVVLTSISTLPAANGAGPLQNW
Sequence of human orexin-1 receptor (O43613 whole entry): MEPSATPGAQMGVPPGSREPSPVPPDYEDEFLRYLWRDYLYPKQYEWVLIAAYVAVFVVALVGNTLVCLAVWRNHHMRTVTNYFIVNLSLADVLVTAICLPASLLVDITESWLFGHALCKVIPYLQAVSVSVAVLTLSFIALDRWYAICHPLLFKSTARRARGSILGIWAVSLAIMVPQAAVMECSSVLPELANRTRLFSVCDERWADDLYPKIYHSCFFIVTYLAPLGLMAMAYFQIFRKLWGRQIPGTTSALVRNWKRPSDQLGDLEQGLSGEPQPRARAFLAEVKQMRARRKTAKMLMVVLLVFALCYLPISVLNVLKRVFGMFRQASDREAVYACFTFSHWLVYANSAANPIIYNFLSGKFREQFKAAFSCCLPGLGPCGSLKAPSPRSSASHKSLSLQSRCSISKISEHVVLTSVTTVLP

Compound | IC50 (human orexin-2 receptor) | IC50 (human orexin-1 receptor)
C=C1C[C@@H](c2nc3cc(OC)ccc3[nH]2)N(C(=O)c2nc(C)sc2-c2ccc(OC)cc2)C1 [Ex. 6.2] | 17 nM | 223 nM
COc1ccc(-c2sc(C)nc2C(=O)N2CC[C@H](C)[C@H]2c2nc3c(C)c(Cl)ccc3[nH]2)cn1 [Ex. 4.69] | 191 nM | 2 nM
Cc1ccc(C(=O)N2CCC[C@@]2(C)c2nc3c(C)c(C)c(Br)cc3[nH]2)c(-n2nccn2)c1C [Ex. 5.267] | 105 nM | 12 nM
Cc1nc(C(=O)N2CCCC2c2nc3c(C)c(Cl)ccc3[nH]2)c(-c2ccccc2)s1 (centres unmarked) [Ex. 1.133] | 11 nM | 4 nM
C=C1C[C@@H](c2nc3cc(C)c(C)cc3n2C)N(C(=O)c2cc(C)ccc2-n2nccn2)C1 [Ex. 7.2] | 69 nM | 420 nM
Cc1ccc(-n2nccn2)c(C(=O)N2CC[C@H](C)[C@H]2c2nc3c(C)c(C)ccc3[nH]2)c1 [Ex. 4.37] | 988 nM | 24 nM
C=C1CN(C(=O)c2cc(Cl)ccc2-n2nccn2)C(C)(c2nc3cc(OC)ccc3[nH]2)C1 (centres unmarked) [Ex. 6.157] | 21 nM | 70 nM
COc1ccc2nc([C@@H]3CCCN3C(=O)c3cnc(C)nc3-c3ccc(C)c(C)c3)[nH]c2c1 [Ex. 1.31] | 78 nM | 195 nM
Cc1cccc(-c2ccc(C)cc2C(=O)N2CCC[C@@]2(C)c2nc3cc(C)c(C)cc3[nH]2)c1 [Ex. 5.99] | 11 nM | 6 nM
Cc1ccc(-n2nccn2)c(C(=O)N2CCC[C@@]2(C)c2nc3cc(F)c(Br)cc3[nH]2)n1 [Ex. 5.131] | 178 nM | 15 nM
Cc1ccc(-c2cccc(F)c2)c(C(=O)N2CCC[C@@]2(C)c2nc3cc(C)c(C)cc3n2C)c1 [Ex. 7.30] | 12 nM | 9 nM
CO[C@H]1C[C@@H](c2nc3c(C)cccc3[nH]2)N(C(=O)c2nc(C)sc2-c2ccccc2)C1 [Ex. 3.3] | 255 nM | 1290 nM
C=C1C[C@@H](c2nc3c(SC)cccc3[nH]2)N(C(=O)c2nc(C)sc2-c2ccc(C)c(C)c2)C1 [Ex. 6.49] | 1 nM | 3 nM
Cc1ccccc1-c1nc(C(=O)N2CCC[C@@]2(C)c2nc3c(C)c(Cl)ccc3[nH]2)c(-c2ccc(F)cc2)s1 [Ex. 5.228] | 2030 nM | 56 nM
CSc1ccc2[nH]c([C@@H]3CCCN3C(=O)c3cc(C)ccc3-n3cccn3)nc2c1 [Ex. 1.177] | 30 nM | 842 nM
CSc1cccc2nc([C@@H]3CCCN3C(=O)c3cnc(C)nc3-c3ccc(F)cc3)[nH]c12 [Ex. 1.80] | 564 nM | 41 nM
C=C1C[C@@H](c2nc3c(C)cc(C)cc3[nH]2)N(C(=O)c2cc(C)ccc2-n2nccn2)C1 [Ex. 6.62] | 4 nM | 44 nM
Cc1ccc(C(=O)N2CC[C@H](C)[C@H]2c2nc3cc(Cl)c(C)cc3[nH]2)c(-c2ccccn2)c1 [Ex. 4.109] | 108 nM | 3 nM
Cc1nc(C(=O)N2CC[C@H](C)[C@H]2c2nc3cc(CO)ccc3[nH]2)c(-c2cccc(Cl)c2)s1 [Ex. 4.27] | 5590 nM | 59 nM
CO[C@@H]1C[C@@H](c2nc3ccc(Cl)c(C)c3[nH]2)N(C(=O)c2ccccc2-c2ccccc2)C1 [Ex. 3.39] | 57 nM | 74 nM

Compound | IC50 (human orexin-2 receptor) | IC50 (human orexin-1 receptor)
C=C1CC(c2nc3c(OC)ccc(OC)c3[nH]2)N(C(=O)c2cc(C)sc2-c2ccc(C)c(C)c2)C1 (racemic) [Ex. 6.83] | 23 nM | 8 nM
Cc1nc(C(=O)N2CC[C@H](C)[C@H]2c2nc3cc(C(F)(F)F)ccc3[nH]2)c(-c2cc(F)cc(F)c2)s1 [Ex. 4.148] | 3180 nM | 7 nM
C=C1C[C@@H](c2nc3cc(C(C)(C)C)ccc3[nH]2)N(C(=O)c2cc(C)ccc2-n2cccn2)C1 [Ex. 6.171] | 19 nM | 162 nM
Cc1ccc(-n2nccn2)c(C(=O)N2CC[C@H](C)[C@H]2c2nc3c(C)cc(C)cc3[nH]2)c1 [Ex. 4.33] | 294 nM | 9 nM
C=C1C[C@@H](c2nc3cc(C(C)(C)C)ccc3[nH]2)N(C(=O)c2cc(C(F)(F)F)ccc2-n2nccn2)C1 [Ex. 6.168] | 54 nM | 261 nM
Cc1nc(C(=O)N2CC[C@H](C)[C@H]2c2nc3cc(C#N)ccc3[nH]2)c(-c2cccc(Cl)c2)s1 [Ex. 4.8] | 9930 nM | 68 nM
COc1cc2nc([C@]3(C)CCCN3C(=O)c3cc(C)ccc3-c3ncccn3)[nH]c2cc1OC [Ex. 5.280] | 16 nM | 36 nM
COc1cc2nc([C@]3(C)CCCN3C(=O)c3nc(C)sc3-c3ccc(Cl)cc3)[nH]c2cc1OC [Ex. 5.79] | 97 nM | 43 nM
C=C1CC(c2nc3cc(SC)ccc3[nH]2)N(C(=O)c2cc(C)sc2-c2ccc(C)c(C)c2)C1 (centres unmarked) [Ex. 6.73] | 4 nM | 10 nM
Cc1cc2[nH]c([C@@H]3[C@@H](C)CCN3C(=O)c3ccccc3-n3nccn3)nc2cc1Cl [Ex. 4.76] | 113 nM | 8 nM
Cc1nc(C(=O)N2CCCC2c2nc3c(C(F)(F)F)cccc3[nH]2)c(-c2cccc(Cl)c2)s1 (centres unmarked) [Ex. 1.105] | 89 nM | 45 nM
Cc1ccc(-c2cccnc2)c(C(=O)N2CC[C@H](C)[C@H]2c2nc3cc(Cl)c(C)cc3[nH]2)c1 [Ex. 4.104] | 1660 nM | 14 nM
COc1cccc2nc([C@@H]3CCCN3C(=O)c3nc(C)sc3-c3cccc(Cl)c3)[nH]c12 [Ex. 1.11] | 54 nM | 110 nM
Cc1ccc(C(=O)N2CC[C@H](C)[C@H]2c2nc3cc(Cl)c(C)cc3[nH]2)c(-c2ncccn2)c1 [Ex. 4.130] | 128 nM | 11 nM
COc1cccc(-c2ccccc2C(=O)N2CCC[C@@]2(C)c2nc3c(C)c(C)ccc3[nH]2)c1 [Ex. 5.117] | 38 nM | 57 nM
COc1cccc(-c2sc(C)nc2C(=O)N2CCC[C@H]2c2nc3cccc(SC)c3[nH]2)c1 [Ex. 1.63] | 9 nM | 12 nM
Cc1cccc(-c2sc(C)nc2C(=O)N2CCC[C@@]2(C)c2nc3ccc(F)c(F)c3[nH]2)c1 [Ex. 5.210] | 27 nM | 3 nM
Cc1ccc(-n2nccn2)c(C(=O)N2C[C@@H](F)C[C@H]2c2nc3ccc(Cl)c(C)c3[nH]2)c1 [Example 2.1, ((2S,4S)-2-(6-chloro-7-methyl-1H-benzo[d]imidazol-2-yl)-4-fluoropyrrolidin-1-yl)(5-methyl-2-(2H-1,2,3-triazol-2-yl)phenyl)methanone] | 53 nM | 56 nM
C=C1C[C@@H](c2nc3ccc(OC)cc3[nH]2)N(C(=O)c2nc(C)ccc2-n2cccn2)C1 [Ex. 6.138] | 34 nM | > 6970 nM
Cc1cc(C(=O)N2CCC[C@@]2(C)c2nc3cc(OC(F)(F)F)ccc3[nH]2)c(-n2nccn2)cc1C [Ex. 5.235] | 16.5 nM | 5 nM

Compound | IC50 (human orexin-2 receptor) | IC50 (human orexin-1 receptor)
C=C1C[C@@H](c2nc3ccc(Cl)c(C)c3[nH]2)N(C(=O)c2c(-n3nccn3)ccc(OC)c2F)C1 [Ex. 6.133] | 2 nM | 3 nM
C=C1C[C@@H](c2nc3cc(C(C)(C)C)ccc3[nH]2)N(C(=O)c2nc(C)ccc2-n2nccn2)C1 [Ex. 6.174] | 15 nM | 233 nM
COc1cccc(-c2ccccc2C(=O)N2CCC[C@@]2(C)c2nc3cc(C)c(C)cc3[nH]2)c1 [Ex. 5.101] | 54 nM | 59 nM
Cc1ccc(-c2ncccn2)c(C(=O)N2CC[C@H](C)[C@H]2c2nc3cc(Cl)c(C)cc3[nH]2)c1 [Ex. 4.180] | 304 nM | 8 nM
Cc1ccc(-n2nccn2)c(C(=O)N2CC[C@H](C)[C@H]2c2nc3c(C)c(Cl)ccc3[nH]2)c1 [Ex. 4.35] | 193 nM | 3 nM
COc1cccc(C#Cc2ccccc2C(=O)N2CCC[C@@]2(C)c2nc3cc(C(F)(F)F)ccc3[nH]2)c1 [Ex. 5.250] | 992 nM | 184 nM
Cc1nc(C(=O)N2CCC[C@@]2(C)c2nc3c(C)c(Cl)ccc3[nH]2)c(-c2ccccc2)s1 [Ex. 5.3] | 4 nM | 2 nM
C=C1C[C@@H](c2nc3cc(OC)ccc3[nH]2)N(C(=O)c2nc(C)sc2-c2cccc(C(F)(F)F)c2)C1 [Ex. 6.30] | 31 nM | 203 nM
COc1ccc2nc([C@@H]3CCCN3C(=O)c3cc(C)ccc3-n3nccn3)[nH]c2c1 [Ex. 1.16] | 5 nM | 245 nM
C=C1C[C@@H](c2nc3cc(OC)ccc3[nH]2)N(C(=O)c2c(F)cccc2-n2nccn2)C1 [Ex. 6.19] | 61 nM | 1530 nM
CSc1cccc2nc([C@@H]3CCCN3C(=O)c3nc(C)sc3-c3cccc(F)c3)[nH]c12 [Ex. 1.65] | 147 nM | 63 nM
C=C1C[C@@H](c2nc3cc(C(C)(C)C)ccc3[nH]2)N(C(=O)c2cc(F)ccc2-n2nccn2)C1 [Ex. 6.160] | 8 nM | 326 nM
Cc1ccc(C(=O)N2CCC[C@@]2(C)c2nc3cc(OC(F)(F)F)ccc3[nH]2)c(-c2cccnc2)c1 [Ex. 5.241] | 1000 nM | 54 nM
Cc1ccc(-n2nccn2)c(C(=O)N2CCC[C@@]2(C)c2nc3c(C)c(Cl)ccc3n2C)n1 [Ex. 7.18] | 4 nM | 1 nM
C=C1CC(c2nc3c(Br)cccc3[nH]2)N(C(=O)c2cc(C)sc2-c2ccc(C)c(C)c2)C1 (centres unmarked) [Ex. 6.78] | 12 nM | 5 nM
Cc1nc(C(=O)N2CCC[C@@]2(C)c2nc3cc(OC(F)(F)F)ccc3[nH]2)c(-c2ccc(F)cc2)s1 [Ex. 5.248] | 494 nM | 22 nM
Cc1ccc(-n2cccn2)c(C(=O)N2CCC[C@@]2(C)c2nc3c(F)c(F)ccc3[nH]2)c1 [Ex. 5.201] | 861 nM | 265 nM
Cc1nc(C(=O)N2CCC[C@@]2(C)c2nc3c(C)cccc3n2C)c(-c2cccc(Cl)c2)s1 [Ex. 7.5] | 2 nM | 9 nM
